{
  "source": "BindingDB's records for doi:10.1021/jm00020a029",
  "about": "(Merck Research Laboratories, 1995)",
  "note": "Where a SMILES comes first, the peptide text is derived from it. [ ]: non-standard residue; d: D form. Phe(F5) = N[C@@H](Cc1c(F)c(F)c(F)c(F)c1F)C(=O)O; Phe(4-CH2NH2) = NCc1ccc(C[C@H](N)C(=O)O)cc1; Phe(4-NH2) = Nc1ccc(C[C@H](N)C(=O)O)cc1; Phe(4-F) = N[C@@H](Cc1ccc(F)cc1)C(=O)O; 2Nal = N[C@@H](Cc1ccc2ccccc2c1)C(=O)O; NMeR = CN[C@@H](CCCNC(=N)N)C(=O)O; hPhe = N[C@@H](CCc1ccccc1)C(=O)O; Cha = N[C@@H](CC1CCCCC1)C(=O)O; NMeL = CN[C@@H](CC(C)C)C(=O)O; NMeA = CN[C@@H](C)C(=O)O",
  "data": [
    {"assay": "Evaluated for the activation of human thrombin receptor measured by platelet aggregation", "units": {"EC50": "µM"}, "values": [
      {"smiles": "CC(C)C[C@H](NC(=O)[C@H](Cc1ccc(F)cc1)NC(=O)[C@H](C)N)C(=O)N[C@@H](CCCNC(=N)N)C(=O)N[C@@H](CCCNC(=N)N)C(N)=O", "note": "[(S)-2-[(S)-2-((S)-2-Amino-propionylamino)-3-(4-fluoro-phenyl)-propionylamino]-4-methyl-pentanoic acid [(S)-1-((S)-1-carbamoyl-4-guanidino-butylcarbamoyl)-4-guanidino-butyl]-amide] (H-A[Phe(4-F)]LRR-NH2)", "EC50": 40},
      {"smiles": "COc1ccc(C[C@H](NC(=O)[C@H](C)N)C(=O)N[C@@H](CC(C)C)C(=O)N[C@@H](CC(C)C)C(=O)N[C@@H](CCCNC(=N)N)C(N)=O)cc1", "note": "[(S)-2-[(S)-2-((S)-2-Amino-propionylamino)-3-(4-methoxy-phenyl)-propionylamino]-4-methyl-pentanoic acid [(S)-1-((S)-1-carbamoyl-4-guanidino-butylcarbamoyl)-3-methyl-butyl]-amide] (H-AY(Me)LLR-NH2)", "EC50": 21.4},
      {"smiles": "CC(C)C[C@H](NC(=O)[C@H](CC(C)C)NC(=O)[C@H](CC1CCCCC1)NC(=O)[C@H](C)N)C(=O)N[C@@H](CCCNC(=N)N)C(N)=O", "note": "[(S)-2-[(S)-2-((S)-2-Amino-propionylamino)-3-cyclohexyl-propionylamino]-4-methyl-pentanoic acid [(S)-1-((S)-1-carbamoyl-4-guanidino-butylcarbamoyl)-3-methyl-butyl]-amide] (H-A[Cha]LLR-NH2)", "EC50": 28},
      {"smiles": "CC(C)C[C@H](NC(=O)[C@H](CC(C)C)NC(=O)[C@H](Cc1ccc2ccccc2c1)NC(=O)[C@H](C)N)C(=O)N[C@@H](CCCNC(=N)N)C(N)=O", "note": "[(S)-2-[(S)-2-((S)-2-Amino-propionylamino)-3-naphthalen-2-yl-propionylamino]-4-methyl-pentanoic acid [(S)-1-((S)-1-carbamoyl-4-guanidino-butylcarbamoyl)-3-methyl-butyl]-amide] (H-A[2Nal]LLR-NH2)", "EC50": 19},
      {"smiles": "CC(C)C[C@H](NC(=O)[C@H](CC(C)C)NC(=O)[C@H](Cc1c(F)c(F)c(F)c(F)c1F)NC(=O)[C@H](C)N)C(=O)N[C@@H](CCCNC(=N)N)C(N)=O", "note": "[(S)-2-[(S)-2-((S)-2-Amino-propionylamino)-3-pentafluorophenyl-propionylamino]-4-methyl-pentanoic acid [(S)-1-((S)-1-carbamoyl-4-guanidino-butylcarbamoyl)-3-methyl-butyl]-amide] (H-A[Phe(F5)]LLR-NH2)", "EC50": 600},
      {"smiles": "CC(C)C[C@H](NC(=O)[C@H](Cc1ccccc1)NC(=O)[C@H](C)N)C(=O)N[C@@H](CC1CCCCC1)C(=O)N[C@@H](CCCNC(=N)N)C(N)=O", "note": "[(S)-2-[(S)-2-((S)-2-Amino-propionylamino)-3-phenyl-propionylamino]-4-methyl-pentanoic acid [(S)-1-((S)-1-carbamoyl-4-guanidino-butylcarbamoyl)-2-cyclohexyl-ethyl]-amide] (H-AFL[Cha]R-NH2)", "EC50": 0.4},
      {"smiles": "CC(C)C[C@H](NC(=O)[C@H](CC(C)C)NC(=O)[C@H](Cc1ccccc1)NC(=O)[C@H](C)N)C(=O)N[C@@H](CCCNC(=N)N)C(N)=O", "note": "[(S)-2-[(S)-2-((S)-2-Amino-propionylamino)-3-phenyl-propionylamino]-4-methyl-pentanoic acid [(S)-1-((S)-1-carbamoyl-4-guanidino-butylcarbamoyl)-3-methyl-butyl]-amide] (H-AFLLR-NH2)", "EC50": 0.8},
      {"smiles": "CC(C)C[C@H](NC(=O)[C@H](Cc1ccccc1)NC(=O)[C@H](C)N)C(=O)N(C)[C@@H](CC(C)C)C(=O)N[C@@H](CCCNC(=N)N)C(N)=O", "note": "[(S)-2-[(S)-2-((S)-2-Amino-propionylamino)-3-phenyl-propionylamino]-4-methyl-pentanoic acid [(S)-1-((S)-1-carbamoyl-4-guanidino-butylcarbamoyl)-3-methyl-butyl]-methyl-amide] (H-AFL[NMeL]R-NH2)", "EC50": 260},
      {"smiles": "CC(C)C[C@H](NC(=O)[C@H](CC(C)C)NC(=O)[C@H](CCc1ccccc1)NC(=O)[C@H](C)N)C(=O)N[C@@H](CCCNC(=N)N)C(N)=O", "note": "[(S)-2-[(S)-2-((S)-2-Amino-propionylamino)-4-phenyl-butyrylamino]-4-methyl-pentanoic acid [(S)-1-((S)-1-carbamoyl-4-guanidino-butylcarbamoyl)-3-methyl-butyl]-amide] (H-A[hPhe]LLR-NH2)", "EC50": "> 800"},
      {"smiles": "CC(C)C[C@H](NC(=O)[C@H](CC(C)C)NC(=O)[C@H](Cc1ccccc1)NC(=O)[C@@H](N)CO)C(=O)N[C@@H](CCCNC(=N)N)C(=O)N[C@@H](CC(N)=O)C(N)=O", "note": "[(S)-2-[(S)-2-((S)-2-{(S)-2-[(S)-2-((S)-2-Amino-3-hydroxy-propionylamino)-3-phenyl-propionylamino]-4-methyl-pentanoylamino}-4-methyl-pentanoylamino)-5-guanidino-pentanoylamino]-succinamide]", "EC50": 0.2},
      {"smiles": "CC(C)C[C@H](NC(=O)[C@H](CC(C)C)NC(=O)[C@H](Cc1ccc(N)cc1)NC(=O)[C@H](C)N)C(=O)N[C@@H](CCCNC(=N)N)C(N)=O", "note": "[(S)-2-[(S)-3-(4-Amino-phenyl)-2-((S)-2-amino-propionylamino)-propionylamino]-4-methyl-pentanoic acid [(S)-1-((S)-1-carbamoyl-4-guanidino-butylcarbamoyl)-3-methyl-butyl]-amide] (H-A[Phe(4-NH2)]LLR-NH2)", "EC50": 235},
      {"smiles": "CC(C)C[C@H](NC(=O)[C@H](CC(C)C)NC(=O)[C@H](Cc1ccc(CN)cc1)NC(=O)[C@H](C)N)C(=O)N[C@@H](CCCNC(=N)N)C(N)=O", "note": "[(S)-2-[(S)-3-(4-Aminomethyl-phenyl)-2-((S)-2-amino-propionylamino)-propionylamino]-4-methyl-pentanoic acid [(S)-1-((S)-1-carbamoyl-4-guanidino-butylcarbamoyl)-3-methyl-butyl]-amide] (H-A[Phe(4-CH2NH2)]LLR-NH2)", "EC50": 800},
      {"smiles": "CC(C)C[C@H](NC(=O)[C@H](CC(C)C)NC(=O)[C@H](Cc1ccccc1)N(C)C(=O)[C@@H](N)CO)C(=O)N[C@@H](CCCNC(=N)N)C(N)=O", "note": "[(S)-2-{(S)-2-[((S)-2-Amino-3-hydroxy-propionyl)-methyl-amino]-3-phenyl-propionylamino}-4-methyl-pentanoic acid [(S)-1-((S)-1-carbamoyl-4-guanidino-butylcarbamoyl)-3-methyl-butyl]-amide]", "EC50": "> 800"},
      {"smiles": "CC(C)C[C@H](NC(=O)[C@H](CC(C)C)NC(=O)[C@H](Cc1ccccc1)NC(=O)[C@@H](N)CO)C(N)=O", "note": "[(S)-2-{(S)-2-[(S)-2-((S)-2-Amino-3-hydroxy-propionylamino)-3-phenyl-propionylamino]-4-methyl-pentanoylamino}-4-methyl-pentanoic acid amide] (H-SFLL-NH2)", "EC50": 185},
      {"smiles": "CC(C)C[C@H](NC(=O)[C@H](C)NC(=O)[C@H](Cc1ccccc1)NC(=O)[C@@H](N)CO)C(=O)N[C@@H](CCCNC(=N)N)C(N)=O", "note": "[(S)-2-{(S)-2-[(S)-2-((S)-2-Amino-3-hydroxy-propionylamino)-3-phenyl-propionylamino]-propionylamino}-4-methyl-pentanoic acid ((S)-1-carbamoyl-4-guanidino-butyl)-amide] (H-SFALR-NH2)", "EC50": 1.3},
      {"smiles": "CC(C)C[C@H](NC(=O)[C@H](CCCNC(=N)N)NC(=O)[C@H](Cc1ccc(F)cc1)NC(=O)[C@H](C)N)C(=O)N[C@@H](CCCNC(=N)N)C(N)=O", "note": "[(S)-2-{(S)-2-[(S)-2-((S)-2-Amino-propionylamino)-3-(4-fluoro-phenyl)-propionylamino]-5-guanidino-pentanoylamino}-4-methyl-pentanoic acid ((S)-1-carbamoyl-4-guanidino-butyl)-amide] (H-A[Phe(4-F)]RLR-NH2)", "EC50": 0.13},
      {"smiles": "CC(C)C[C@H](NC(=O)[C@H](Cc1ccccc1)NC(=O)[C@H](C)N)C(=O)N[C@@H](CC(C)C)C(=O)N(C)[C@@H](CCCNC(=N)N)C(N)=O", "note": "[(S)-2-{(S)-2-[(S)-2-((S)-2-Amino-propionylamino)-3-phenyl-propionylamino]-4-methyl-pentanoylamino}-4-methyl-pentanoic acid ((S)-1-carbamoyl-4-guanidino-butyl)-methyl-amide] (H-AFLL[NMeR]-NH2)", "EC50": 800},
      {"smiles": "CC(C)C[C@H](NC(=O)[C@H](CC(C)C)NC(=O)[C@H](Cc1ccccc1)NC(=O)[C@@H](N)Cc1cnc[nH]1)C(=O)N[C@@H](CCCNC(=N)N)C(N)=O", "note": "[(S)-2-{(S)-2-[(S)-2-Amino-3-(3H-imidazol-4-yl)-propionylamino]-3-phenyl-propionylamino}-4-methyl-pentanoic acid [(S)-1-((S)-1-carbamoyl-4-guanidino-butylcarbamoyl)-3-methyl-butyl]-amide] (H-HFLLR-NH2)", "EC50": 31},
      {"smiles": "CC(C)C[C@H](NC(=O)[C@H](CC(C)C)NC(=O)[C@H](Cc1ccccc1)NC(=O)[C@@H](N)Cc1ccc(O)cc1)C(=O)N[C@@H](CCCNC(=N)N)C(N)=O", "note": "[(S)-2-{(S)-2-[(S)-2-Amino-3-(4-hydroxy-phenyl)-propionylamino]-3-phenyl-propionylamino}-4-methyl-pentanoic acid [(S)-1-((S)-1-carbamoyl-4-guanidino-butylcarbamoyl)-3-methyl-butyl]-amide] (H-YFLLR-NH2)", "EC50": 400},
      {"smiles": "CC(C)C[C@H](NC(=O)[C@H](CC(C)C)N(C)C(=O)[C@H](Cc1ccccc1)NC(=O)[C@@H](N)CO)C(=O)N[C@@H](CCCNC(=N)N)C(N)=O", "note": "[(S)-2-{[(S)-2-((S)-2-Amino-3-hydroxy-propionylamino)-3-phenyl-propionyl]-methyl-amino}-4-methyl-pentanoic acid [(S)-1-((S)-1-carbamoyl-4-guanidino-butylcarbamoyl)-3-methyl-butyl]-amide]", "EC50": 350},
      {"smiles": "CC(C)C[C@H](NC(=O)[C@H](CC(C)C)NC(=O)[C@H](Cc1ccccc1)NC(=O)[C@@H](N)CC(=O)O)C(=O)N[C@@H](CCCNC(=N)N)C(N)=O", "note": "[(S)-3-Amino-N-((S)-1-{(S)-1-[(S)-1-((S)-1-carbamoyl-4-guanidino-butylcarbamoyl)-3-methyl-butylcarbamoyl]-3-methyl-butylcarbamoyl}-2-phenyl-ethyl)-succinamic acid] (H-DFLLR-NH2)", "EC50": "> 800"},
      {"smiles": "CN[C@@H](C)C(=O)N[C@@H](Cc1ccccc1)C(=O)N[C@@H](CC(C)C)C(=O)N[C@@H](CC(C)C)C(=O)N[C@@H](CCCNC(=N)N)C(N)=O", "note": "[(S)-4-Methyl-2-[(S)-2-((S)-2-methylamino-propionylamino)-3-phenyl-propionylamino]-pentanoic acid [(S)-1-((S)-1-carbamoyl-4-guanidino-butylcarbamoyl)-3-methyl-butyl]-amide] (H-[NMeA]FLLR-NH2)", "EC50": 600}
    ]}
  ]
}
